According to patent US7470669B2, “Isolated polypeptide comprising a leptin fragment” (Serono Genetics Institute, S.A., priority 1999, dated 2008):

Legend:
[1] = system: bovine brain capillary endothelial cells; experiment: Leptin transcytosis in blood-brain barrier in vitro model; type: cell-based; conditions: for leptin transport / transcytosis: 10 ng/mL 125I-leptin + 50 μg/mL peptide
Description: Cells were incubated with ^125I-leptin alone (10,000 dpm/ng) (closed squares), with 1 μg/mL unlabelled leptin (triangles), 50 μg/mL MP (circles), 50 μg/mL HP (open squares), or 2 mg/mL lactoferrin (asterisks).
Human leptin transport through the blood-brain barrier (BBB) is studied using an in vitro model (Dehouck, et al J Neurochem 54:1798-801, 1990 hereby incorporated herein by reference in its entirety including any figures, tables, or drawings). This model closely mimics the in vivo situation with regard to the selective passage of nutrients and drugs through the cerebro-vascular endothelium. […] Briefly, this model consists of a co-culture of bovine brain capillary endothelial cells (ECs) and rat astrocytes (FIG. 31). The astrocytes are seeded on the plastic of a six-well dish and grown for 3 weeks. A collagen-coated filter is then set in each dish and bovine ECs are plated on the upper-side of the filter. ECs form a confluent monolayer in 5 days and they are used for experiments after 16 days of coculture with astrocytes.
Leptin transcytosis: Experiments were performed on brain capillary endothelial cells in coculture with astrocytes for 16 days. On the day of the experiment, ECs were transferred to a clean 6-well plate containing 2 mL of Ringer-Hepes buffer (see, FIG. 32). At time 0, 1 mL Ringer Hepes containing ^125I-leptin was placed in the upper compartment. After 30, 60, 120, or 180 min incubation at 37° C. on a rocking platform, the insert was transferred into another well of a six-well plate to minimize the possible passage of substances from the lower to the upper compartment. At the end of the experiment, the amount of radioactivity of each well was counted. […]
The transport of molecules through the endothelial monolayer was determined for each time point as % passage: % passage of radiolabelled molecule through the endothelium: dpm found in the lower compartment at a time point divided by the initial dpm found in the upper compartment: % transport at 30 min=(lower dpm t30/upper dpm)*100.

[2] = system: LSR; experiment: LSR activity (oleate-induced 125I-LDL binding, uptake, degradation) in PLC cells; type: cell-based, human; conditions: for LSR activity in human cells: 22-mer peptide, increasing concentrations
Description: FIGS. 5A, 5B, 5C, and 5D show the stimulatory effect of leptin on LSR activity in PLC and suppression of this effect by 81B antibody. For FIGS. 5A, 5B, and 5C, cultured PLC cells were incubated at 37° C. for 30 min with increasing concentrations of human recombinant leptin in Buffer A. After this, 0.5 mM oleate and 20 μg/mL ^125I-LDL were added, and cells were further incubated at 37° C. for 2 h. Cells were washed, and the amount of oleate-induced ^125I-LDL bound (5A), internalized (5B) and degraded (5C) were measured. For FIG. 5D, PLC cells were incubated at room temperature for 30 min with 200 μg/mL anti-LSR peptide 81B or 170 antibody, followed by incubation at 37° C. for 30 min without (open bar) or with (hatched bar) 10 ng/mL human leptin. Oleate (0.5 mM) and ^125I-LDL (20 μg/mL) were added, and the monolayers were left at 37° C. for 3 h. After washing, the amount of ^125I-LDL binding was determined, and is shown here as the mean±SD of triplicate determinations.
FIGS. 8A and 8B show the effect of mouse or human leptin on LSR activity in primary cultures of rat hepatocytes or a human liver cell line (PLC). Primary cultured rat hepatocytes were obtained commercially (In Vitro Tech). The PLC cell line was obtained from ATCC repository and maintained in culture. Rat hepatocytes 72 h after plating (8A) or confluent monolayers of PLC (8B) were incubated 30 min at 37° C. with 0 (closed bar) or 10 ng/mL of human (open bar) or mouse (hatched bar) recombinant leptin. Following this, 0.5 mM oleate and 20 μg/mL ^125I-LDL were added and the cells were further incubated for 2 h at 37° C. […] The cells were washed, and the amount of oleate-induced ^125I-LDL bound and degraded was measured as described previously (Bihain, B. E., and Yen, F. T. (1992). Free fatty acids activate a high-affinity saturable pathway for degradation of low density lipoproteins infibroblasts from a subject homozygous for familial hypercholesterolemia. Biochemistry 31, 4628-4636.
FIGS. 35A and 35B show graphs of LSR activity and mRNA expression measured in PLC cells preincubated 24 h with leptin. In FIG. 35A, PLC monolayers were incubated 24 h at 37° C. with (o) or without (n) 200 ng/mL human recombinant leptin. After washing with PBS, cells were incubated 30 min at 37° C. with increasing concentrations of human leptin, followed by a 2 h incubation at 37° C. with 0.8 mM oleate and 20 μg/mL ^125I-LDL. Cells were washed, and the amount of oleate-induced ^125I-LDL binding was measured as described previously. Results are shown as the mean of triplicate determinations. In FIG. 35B, PLC monolayers were incubated 24 h at 37° C. with 0, 200, or 400 ng/mL human recombinant leptin. After washing with PBS, the cells were harvested. Total RNA was prepared from the cell pellets, and Northerns were performed to detect LSR mRNA, using GAPDH probe as loading control as described previously. Northern blots were scanned on the Phosphorimager (Molecular Dynamics, Sunnyvale, Calif.). Densitometric analysis of the images was performed using the software ImageQuant. Results are shown as the amount of LSR signal relative to that of GAPDH (mean±SD, n=3/condition). […]

Substance | reduction of the amount of 125I-leptin transported ([1]; 10 ng/mL 125I-leptin + 1 μg/mL cold leptin) | leptin concentration at which the effect on LSR activity was observed ([2]; PLC cells, human recombinant leptin) | oleate-induced LSR binding uptake and degradation of 125I-LDL ([2]; PLC cells, human recombinant leptin, 30 min preincubation, 0.5 mM oleate) | leptin concentration needed for maximal stimulatory effect ([2]; PLC preincubated 24 h with 200 ng/mL leptin) | reduction of the maximal stimulatory effect on oleate-induced 125I-LDL binding ([2]; PLC preincubated 24 h with 200 ng/mL leptin, then short incubation with leptin) | leptin transport / transcytosis [1] | LSR activity in human cells ([2]; PLC cells)
leptin: plasma protein of 16 kDa produced by adipocytes; recombinant human or mouse leptin, species depends on the experiment | approximately 30% | ≥ 10 ng/mL | directly increased | 100 ng/mL | about 50% |  | 
CSLPQTSGLQKPESLDGVLEAS (listed as Mus musculus) [mouse peptide, mouse leptin fragment residues 117-138, 22-mer] |  |  |  |  |  | no significant effect | antagonist
CHLPWASGLETLDSLGGVLEAS (listed as Homo sapiens) [human peptide, human leptin fragment residues 117-138, 22-mer] |  |  |  |  |  | significant increase | agonistic
